From patent US7732430B2, “Drug delivery system comprising a tetrahydroxilated estrogen for use in hormonal contraception” (Pantarhei Bioscience B.V., priority 2001, dated 2010)
Read-outs that look alike come from different tables or passages of the source.

How the values were obtained:
[1] = biological target: T1, human sex Hormone Binding Globulin (SHBG) (Homo sapiens, UniProt P04278); test: Competitive steroid-binding assay for human SHBG; settings: for relative binding affinity for human SHBG: rank order ethinylestradiol < 17β-estradiol < testosterone < 5α-dihydrotestosterone
T1 construct: Human SHBG was purified from transgenic mouse serum; made in house; host or cells: transgenic mouse (serum)
T1 sequence (P04278 30-402): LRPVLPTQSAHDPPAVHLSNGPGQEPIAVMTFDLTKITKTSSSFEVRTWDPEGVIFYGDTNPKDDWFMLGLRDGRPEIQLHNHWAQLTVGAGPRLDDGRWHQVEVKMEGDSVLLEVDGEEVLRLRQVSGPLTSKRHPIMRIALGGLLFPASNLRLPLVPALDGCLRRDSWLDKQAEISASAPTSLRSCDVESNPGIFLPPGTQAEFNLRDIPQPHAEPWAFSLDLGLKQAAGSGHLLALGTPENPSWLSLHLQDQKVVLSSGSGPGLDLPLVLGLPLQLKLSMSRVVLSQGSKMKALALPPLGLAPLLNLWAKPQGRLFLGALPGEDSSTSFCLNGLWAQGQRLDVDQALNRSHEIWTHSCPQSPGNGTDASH
Procedure: Human SHBG was treated for 30 min at room temperature with a dextran-coated charcoal (DCC) suspension in phosphate buffered saline (PBS) to remove any steroid ligand. After centrifugation (2,000×g for 10 min) to sediment the DCC, the supernatant containing the human SHBG was diluted in PBS to a concentration of 1 nM based on its steroid binding capacity.
The average amounts of [^3H]labeled ligands bound to SHBG at each concentration of competitor (B) were expressed as a percentage of the average amounts of [^3H]labeled ligands bound to SHBG in the absence of competitor (B0), and were plotted against the concentration of competitor in each assay tube.

four-day cyclic rats = test: Antiovulatory bioassay after oral administration; assay type: in vivo, rat; settings: for ED50: Rattus norvegicus, 96 h
Procedure: A bioassay method (modified according to De Visser et al., 1984, Arzneim. […].
Rats are spontaneously ovulating, polyestrous mammals. Generally, proestrus lasts for 12 to 14 hours, estrus for 25 to 27 hours, metestrus for 6 to 8 hours, and diestrus for 55 to 57 hours (Freeman, 1988, In: The Physiology of Reproduction, E Knobil and J Neill (eds). Raven Press, Ltd, New York, pp. 1893-1928). These stages of the estrous cycle can be classified based on the cell types present in daily vaginal smears (Schwartz, 1969, Recent Prog. Horm. Res. 25, 1-55).
The preovulatory period of the rat estrous cycle is characterized by ovarian follicular growth and enhanced estrogen secretion. In the four-day cyclic rat, peripheral plasma levels of E2 are basal through estrus. At the end of metestrus and extending through early diestrus, plasma levels of E2 begin to rise. This increase continues through diestrus and early proestrus to reach peak values and plateau by mid-proestrus. Subsequently, E2 levels fall rapidly, reaching basal values by the early morning hours of estrus. The rising estrogen levels from late metestrus to early proestrus exert a positive feedback effect on the hypothalamic-pituitary axis resulting in a luteinizing hormone (LH) surge on the afternoon of proestrus. The LH surge induces follicular rupture and the release of ova in the early morning hours of estrus. By early afternoon on the day of estrus, ova are present in the ampulla of the oviduct and are readily visualized under a dissecting microscope.
Progesterone or levonorgestrel administered subcutaneously on diestrus to four-day cyclic rats is known to inhibit ovulation and increased the estrous cycle length in a dose-dependent manner (Beattie and Corbin, 1975, Endocrinology 97, 885-890). It was shown that the progestational block of ovulation takes place predominately via the hypothalamic-pituitary axis.
Vaginal smears from female rats were obtained daily for two weeks to identify four-day cycling rats. Only four-day cyclic rats were used for the antiovulatory bioassay. […] Twice daily dosing continued for an additional 3 consecutive days. One day after the final dose (day 5), the rats were euthanized by CO2 asphyxiation at approximately 1 pm, and the number of ova per oviduct was determined and recorded. Group means were calculated for the number of ova per ovulated rat (both oviducts). The ratio of rats ovulating for each treatment group was compared to the ratio for the vehicle-treated rats.

[2] = intravenous, two adult women, tritium labeled; cited from earlier work
[3] = biological target: T2, estrogen receptors in the human endometrium (Homo sapiens, UniProt P03372); settings: Tseng et al. 1978; cited from earlier work
T2 construct: estrogen receptors in the human endometrium; host or cells: human endometrium (nuclei)
T2 sequence (P03372 1-595): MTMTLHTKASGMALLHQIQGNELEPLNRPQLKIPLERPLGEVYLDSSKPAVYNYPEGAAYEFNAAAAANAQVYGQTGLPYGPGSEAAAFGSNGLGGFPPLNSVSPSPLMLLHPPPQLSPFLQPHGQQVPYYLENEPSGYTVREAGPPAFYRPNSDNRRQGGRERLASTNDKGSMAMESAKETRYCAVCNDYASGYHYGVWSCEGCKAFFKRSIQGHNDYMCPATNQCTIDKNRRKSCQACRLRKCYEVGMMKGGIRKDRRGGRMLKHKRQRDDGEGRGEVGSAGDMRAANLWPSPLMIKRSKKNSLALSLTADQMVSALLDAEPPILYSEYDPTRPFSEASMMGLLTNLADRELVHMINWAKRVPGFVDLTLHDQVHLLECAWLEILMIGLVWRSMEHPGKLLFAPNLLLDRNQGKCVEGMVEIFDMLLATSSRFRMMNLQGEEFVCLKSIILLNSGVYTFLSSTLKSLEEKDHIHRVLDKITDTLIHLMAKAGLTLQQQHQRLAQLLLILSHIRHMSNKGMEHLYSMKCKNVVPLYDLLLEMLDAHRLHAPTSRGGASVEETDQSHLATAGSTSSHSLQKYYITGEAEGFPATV

nonpregnant ewes = settings: intravenously administered; cited from earlier work
immature rat uterus = settings: subcutaneous, cited from earlier work
[4] = tested on: human breast cancer cells (MCF-7); settings: MCF-7, long term tissue culture; cited from earlier work
[5] = tested on: ovariectomized adult rats; test: Vaginal cornification bioassay after oral administration; assay type: in vivo, rat; settings: 0.1 and 0.3 mg/kg/day po
Source text: Uterine weight increase in the rat is more commonly used as a measure of estrogenicity. […] In the early 1920s it was discovered that follicular fluid from the pig ovary contained a factor(s) that caused cornification/keratinization of the vaginal epithelium in the rat (Allen and Doisy, 1923, JAMA, 81, 819-821; Allen and Doisy, 1924, Am. J. Physiol., 69, 577-588). The so-called vaginal cornification response in rats subsequently provided a bioassay for testing estrogenicity. Vaginal epithelial cornification/keratinization in ovariectomized rats can be produced only by compounds considered to be true estrogens (Jones et al, 1973, Fert. Steril. 24, 284-291). […] Adult intact female CD rats were ovariectomized to induce estrogen deficiency. […] Castrate vaginal smears are indicative that complete ovariectomy was achieved. Treatment commenced following completion of the 7 days of smearing (day 0=first day of dosing). Animals were dosed, once daily for 7 consecutive days. Daily vaginal lavages continued to be obtained for 7 days after dosing was initiated in order to detect vaginal cornification, as an indication of an estrogenic response. A drop of vaginal washings was placed on a glass slide and examined by light microscopy to detect the presence or absence of cornified epithelial cells. Vaginal lavages were obtained prior to dosing on days 0-6 and prior to necropsy on day 7. […]

[6] = biological target: T3, rat uterine nuclear estrogen receptor (Rattus norvegicus, UniProt P06211); settings: cited from earlier work
T3 construct: rat uterine cytosol estrogen receptor; host or cells: rat uterus (cytosol and nuclear fractions)
T3 sequence (P06211 1-600): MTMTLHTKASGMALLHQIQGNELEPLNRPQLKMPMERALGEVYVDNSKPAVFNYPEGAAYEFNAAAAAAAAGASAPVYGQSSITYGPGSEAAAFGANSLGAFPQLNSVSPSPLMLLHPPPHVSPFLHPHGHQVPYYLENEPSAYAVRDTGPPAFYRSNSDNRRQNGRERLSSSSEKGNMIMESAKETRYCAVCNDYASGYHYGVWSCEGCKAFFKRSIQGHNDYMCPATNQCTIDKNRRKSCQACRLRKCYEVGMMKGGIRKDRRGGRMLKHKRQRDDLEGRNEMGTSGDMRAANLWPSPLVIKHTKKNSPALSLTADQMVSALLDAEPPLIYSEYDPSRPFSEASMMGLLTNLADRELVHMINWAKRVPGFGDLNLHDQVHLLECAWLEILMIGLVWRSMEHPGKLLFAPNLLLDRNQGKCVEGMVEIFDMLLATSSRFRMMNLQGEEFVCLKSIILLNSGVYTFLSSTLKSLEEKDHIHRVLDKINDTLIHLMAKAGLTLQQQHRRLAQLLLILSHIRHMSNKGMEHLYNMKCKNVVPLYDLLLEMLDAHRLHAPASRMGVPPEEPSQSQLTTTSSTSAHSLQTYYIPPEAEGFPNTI

[7] = biological target: T4, rat uterine cytosol estrogen receptor (Rattus norvegicus, UniProt P06211); settings: cited from earlier work
T4 construct: rat uterine cytosol estrogen receptor; host or cells: rat uterus (cytosol and nuclear fractions)
T4 sequence (P06211 1-600): T3 sequence (P06211 1-600)

[8] = 30 μg/kg po twice daily for 4 days
[9] = 100 μg/kg po twice daily for 4 days
[10] = 300 μg/kg po twice daily for 4 days
[11] = 1000 μg/kg po twice daily for 4 days
[12] = 3000 μg/kg po twice daily for 4 days

Row | SMILES | relative binding affinity for human SHBG [1] | ED50 (four-day cyclic rats; po twice daily for 4 days) | ovulation blocked (rats of 8) (four-day cyclic rats; [8]) | ovulation blocked (rats of 8) (four-day cyclic rats; [9]) | ovulation blocked (rats of 8) (four-day cyclic rats; [10]) | ovulation blocked (rats of 8) (four-day cyclic rats; [11]) | ovulation blocked (rats of 8) (four-day cyclic rats; [12]) | also measured
1 | C[C@]12CC[C@H]3[C@@H](CCC4=CC(=O)CC[C@@]43C)[C@@H]1CC[C@@H]2O [testosterone, reference compound] | in this order, show an increased relative binding affinity |  |  |  |  |  |  | 
2 | C#C[C@]1(O)CC[C@H]2[C@@H]3CCc4cc(O)ccc4[C@H]3CC[C@@]21C [EE, 17α-ethinyl estradiol, reference compound] |  | 0.01 mg/kg |  |  |  |  |  | 
3 | C[C@]12CC[C@@H]3c4ccc(O)cc4CC[C@H]3[C@@H]1CC[C@@H]2O [E2, 17β-estradiol, reference compound] |  | 0.03 to 0.1 mg/kg | ineffective in inhibiting ovulation | 7 of 8 | 8 of 8 | 8 of 8 | 8 of 8 | 
4 | C[C@]12CCC(=O)C[C@@H]1CC[C@@H]1[C@@H]2CC[C@]2(C)[C@@H](O)CC[C@@H]12 [5α-dihydrotestosterone, reference compound] | in this order, show an increased relative binding affinity |  |  |  |  |  |  | 
5 | C[C@]12CC[C@@H]3c4ccc(O)cc4CC[C@H]3[C@@H]1[C@@H](O)[C@@H](O)[C@@H]2O [estetrol, 1,3,5(10)-estratrien-3,15α,16α,17β-tetrol] | negligible | 0.182 mg/kg | failed to inhibit ovulation | 2 of 8 | 5 of 8 | 7 of 8 | 8 of 8 | excretion [2]: rapidly and completely excreted in urine as the glucosiduronate; metabolism [2]: virtually no metabolism except for conjugation; relative binding, % of 17β-estradiol [3]: 1.5%; potency in uterine vasodilation, times less potent than estriol and 17β-estradiol (nonpregnant ewes): 15 to 30 times; uterotrophic activity (immature rat uterus; Holinka et al. 1979): very weak uterotrophic activity; uterotrophic activity (immature rat uterus; Holinka et al. 1980): very weak uterotrophic activity; agonistic potency relative to 17β-estradiol in cell proliferation [4]: 2%; onset of vaginal cornification (animals responding at days 1-3) [5]: as fast as in EE-treated animals; binding to human SHBG ([1]; [3H]DHT as labeled ligand): does not bind at all; binding to human SHBG ([1]; [3H]estradiol as labeled ligand): does not bind at all; relative binding affinity, 17β-estradiol = 100% [6]: 0.3%; antiovulatory potency compared with E2 (four-day cyclic rats; po twice daily for 4 days): approximates the antiovulatory potency of E2; antiovulatory potency, times less potent than ethinylestradiol (four-day cyclic rats; po twice daily for 4 days): 18 times; relative binding affinity, 17β-estradiol = 100% [7]: 0.5%
